This assay addresses T1, IV-cPLA(2) in activated U937 cells (Homo sapiens, UniProt P47712).
T1 sequence (P47712 1-749): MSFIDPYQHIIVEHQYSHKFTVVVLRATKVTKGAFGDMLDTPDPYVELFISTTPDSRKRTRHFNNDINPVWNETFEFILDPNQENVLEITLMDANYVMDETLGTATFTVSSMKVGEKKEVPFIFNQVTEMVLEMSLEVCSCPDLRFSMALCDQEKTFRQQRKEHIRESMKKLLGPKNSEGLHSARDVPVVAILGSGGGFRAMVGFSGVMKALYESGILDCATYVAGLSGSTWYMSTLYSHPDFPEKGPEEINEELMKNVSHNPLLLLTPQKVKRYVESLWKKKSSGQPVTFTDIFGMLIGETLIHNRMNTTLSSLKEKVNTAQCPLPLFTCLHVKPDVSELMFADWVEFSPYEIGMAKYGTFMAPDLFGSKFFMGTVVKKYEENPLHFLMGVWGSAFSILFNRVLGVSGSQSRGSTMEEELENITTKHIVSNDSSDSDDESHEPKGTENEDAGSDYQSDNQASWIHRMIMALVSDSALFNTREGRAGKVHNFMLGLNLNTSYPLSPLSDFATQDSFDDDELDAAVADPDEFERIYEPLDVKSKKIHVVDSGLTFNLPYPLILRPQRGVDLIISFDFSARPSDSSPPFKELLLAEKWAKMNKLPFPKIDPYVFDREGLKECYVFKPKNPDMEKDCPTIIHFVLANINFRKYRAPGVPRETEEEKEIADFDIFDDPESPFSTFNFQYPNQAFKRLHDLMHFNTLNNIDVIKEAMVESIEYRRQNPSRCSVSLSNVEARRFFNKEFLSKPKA
Put plainly: PLA(2) activity: hydrolysis of bis-BODIPY FL C11-PC in TPA/A23187-activated U937 cells. The assay is classed as cell-based. The settings on record: U-937; Concentration 10 μM; inflammatory activated PLA(2) activity, U937 cells. The protocol:
The PLA(2) activity was measured by quantitatively analyzing the fluorescent product of hydrolysis from 1,2-bis-(4,4-difluoro-5,7-dimethyl-4-bora-3a,4a-diaza-s-indecene-3-undecanoyl)-sn-glycero-3-phosphocholine (hereinafter referred to bis-BODIPY®FL C11-PC, Molecular probes, Inc., B-7701) using activated U937 cells (human monoblastic lymphoma cell line) by inflammatory stimulus (Meshulam, T. et al., The journal of Biological Chemistry 267 (30): 21465–21470 (1992); and Solito, E. et al., British Journal of Pharmacology 124: 1675–1683(1998).). The substrate bis-BODIPY®FL C11-PC is incorporated into cellular membranes, the proximity of the BODIPY®FL fluorophores on adjacent phospholipid acyl chains causes fluorescence self-quenching. Separation of the fluorophores upon hydrolytic cleavage of one of the acyl chains by PLA(1) or the PLA(2) results in increased fluorescence. […]
The test compound was dissolved with DMSO at 30 mM, and the solution diluted with either DMSO or the Assay medium before addition into the reaction mixture. […] The increased fluorescence of the hydrolysis product by the enzyme was determined by measuring the fluorescence emission intensity at 535 nm with excitation at 485 nm from the top side of each plate at 37° C., using a Multi Functional Microplate Reader SPECTRA FLUOR PLUS (TECAN Austria GmbH). […]

For orientation: inhibition means the percentage by which the read-out fell short of the control. Read a high inhibition as a response far below the control. Consider `CCOC(=O)C(=C1N[C@@H](C)[C@H](c2ccc(Cl)cc2)S1)[N+](=O)[O-]` (relative stereo) [Compound 2-29, Trans-5-(4-chlorophenyl)-4-methyl-2-(1-ethoxycarbonyl-1-nitromethylene)-thiazolidine], for which the inhibition at 10 µM worked out at 99%.

The record behind these values is US7189751B2, “Oxa(thia)zolidine compounds, process for preparation thereof and anti-inflammatory agents” (Nippon Soda Co., Ltd., priority 2001, dated 2007).
